According to article PMC11402040 (ESMO Open, 2024):

Columns and labels:
[1] = cited from earlier work; for LFT elevations in the clinic: dose levels evaluated in the clinic
[2] = system: CYP3A; test: phase I Part 1B PK, CYP3A-mediated drug–drug interaction with enzalutamide; assay type: in vivo, human; details: coadministered enzalutamide 160 mg q.d.

## bintrafusp alfa: bifunctional fusion protein targeting TGF-β and PD-L1
[1]
  bleeding in clinical studies: Bleeding (including intratumoral bleeding) has been observed

## CC(C)(O)c1cc(Nc2cc(Oc3cn(C4CC4)nc3C3CCOCC3)ccn2)ccn1 [LY3200882]
[1]
  LFT elevations in the clinic: not demonstrated severe LFT elevations

## fresolimumab: other TGF-β inhibitor in clinical studies
[1]
  bleeding in clinical studies: Bleeding (including intratumoral bleeding) has been observed

## CNC(=O)c1ccc(N2C(=S)N(c3ccc(C#N)c(C(F)(F)F)c3)C(=O)C2(C)C)cc1F [enzalutamide]
[2]
  CYP3A4 enzyme induction effect on PF-06952229: strong cytochrome P450 3A4 (CYP3A4) enzyme induction effect

## Cc1cccc(-c2nn3c(c2-c2ccnc4ccc(C(N)=O)cc24)CCC3)n1 [galunisertib]
[1]
  LFT elevations in the clinic: not demonstrated severe LFT elevations
